Patent publication US12275731B2, “Azaindole inhibitors of wild-type and mutant forms of LRRK2” (DANA-FARBER CANCER INSTITUTE, INC., priority 2018, dated 2025)

Assays:
Test in all cases: KinomeScan profiling
Assay type in all cases: binding
SGK3 = target: T1, SGK3 (Homo sapiens, UniProt Q96BR1); conditions: SGK3, 1 μM; read-out: % control
T1 construct: purchased KinomeScan® (panel service)
T1 sequence (Q96BR1 1-496): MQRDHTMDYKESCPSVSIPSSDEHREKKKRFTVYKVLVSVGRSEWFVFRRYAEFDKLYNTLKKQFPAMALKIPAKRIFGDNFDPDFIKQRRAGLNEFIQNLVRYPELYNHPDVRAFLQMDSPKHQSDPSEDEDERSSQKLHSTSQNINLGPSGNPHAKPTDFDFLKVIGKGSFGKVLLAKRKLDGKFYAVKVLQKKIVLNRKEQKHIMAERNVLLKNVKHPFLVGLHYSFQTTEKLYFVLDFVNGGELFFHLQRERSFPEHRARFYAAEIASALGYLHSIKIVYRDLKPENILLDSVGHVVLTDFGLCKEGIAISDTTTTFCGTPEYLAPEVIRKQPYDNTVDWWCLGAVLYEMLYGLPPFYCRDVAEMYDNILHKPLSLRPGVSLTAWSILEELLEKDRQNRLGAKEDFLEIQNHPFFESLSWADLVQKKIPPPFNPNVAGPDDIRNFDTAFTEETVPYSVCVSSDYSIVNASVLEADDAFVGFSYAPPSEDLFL
Method in brief: (§1)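 1 μM cpd in DMSO; 468-kinase panel; readout RLU. % ctrl = (cpd − pos ctrl)/(neg ctrl − pos ctrl) ×100. Pos ctrl = 0%, DMSO = 100%. Hit cut-off <35%.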

MTOR = MTOR (Homo sapiens, UniProt P42345); conditions: read-out: % control
Method in brief: as §1

NEK2 = target: T2, NEK2 (Homo sapiens, UniProt P51955); conditions: NEK2, 1 μM; read-out: % control
T2 sequence (P51955 1-445): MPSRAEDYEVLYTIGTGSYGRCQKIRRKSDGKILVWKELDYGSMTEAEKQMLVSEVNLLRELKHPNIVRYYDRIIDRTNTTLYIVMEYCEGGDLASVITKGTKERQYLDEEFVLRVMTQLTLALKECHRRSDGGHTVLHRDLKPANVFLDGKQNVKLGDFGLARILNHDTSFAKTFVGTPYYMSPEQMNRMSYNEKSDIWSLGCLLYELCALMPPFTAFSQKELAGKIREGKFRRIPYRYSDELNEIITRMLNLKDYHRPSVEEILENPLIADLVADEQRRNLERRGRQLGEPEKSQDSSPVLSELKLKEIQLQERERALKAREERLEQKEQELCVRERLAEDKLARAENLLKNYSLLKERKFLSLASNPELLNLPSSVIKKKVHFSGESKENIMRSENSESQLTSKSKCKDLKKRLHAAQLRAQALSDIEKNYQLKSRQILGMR
Method in brief: as §1

WNK3 = WNK3 (Homo sapiens, UniProt Q9BYP7); conditions: WNK3, 1 μM; read-out: % control
Method in brief: as §1

CDC2L2 = target: T3, CDC2L2 (Homo sapiens, UniProt Q9UQ88); conditions: CDC2L2, 1 μM; read-out: % control
T3 sequence (Q9UQ88 1-783): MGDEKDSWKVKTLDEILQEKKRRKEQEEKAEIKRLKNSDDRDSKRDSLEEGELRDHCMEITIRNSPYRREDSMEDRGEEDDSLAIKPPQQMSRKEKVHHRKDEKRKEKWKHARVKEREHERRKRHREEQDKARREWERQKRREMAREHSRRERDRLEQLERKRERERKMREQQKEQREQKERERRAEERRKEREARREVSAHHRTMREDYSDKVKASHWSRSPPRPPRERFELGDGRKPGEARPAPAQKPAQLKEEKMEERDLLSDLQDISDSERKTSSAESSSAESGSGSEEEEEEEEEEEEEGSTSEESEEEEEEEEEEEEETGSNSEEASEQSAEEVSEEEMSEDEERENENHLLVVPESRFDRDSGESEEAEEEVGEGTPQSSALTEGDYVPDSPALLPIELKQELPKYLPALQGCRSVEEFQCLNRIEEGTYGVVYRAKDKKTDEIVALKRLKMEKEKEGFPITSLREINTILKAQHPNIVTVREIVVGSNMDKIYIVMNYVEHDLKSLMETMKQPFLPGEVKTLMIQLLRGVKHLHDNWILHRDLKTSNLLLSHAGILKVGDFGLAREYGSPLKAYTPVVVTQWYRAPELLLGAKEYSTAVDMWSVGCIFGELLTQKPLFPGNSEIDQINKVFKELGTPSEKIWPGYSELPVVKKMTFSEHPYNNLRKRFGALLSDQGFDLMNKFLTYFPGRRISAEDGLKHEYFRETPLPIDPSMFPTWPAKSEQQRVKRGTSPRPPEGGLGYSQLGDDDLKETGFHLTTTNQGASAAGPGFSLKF
Method in brief: as §1

PCTK2 = PCTK2 (Homo sapiens, UniProt Q00537); conditions: PCTK2, 1 μM; read-out: % control
Method in brief: as §1

GCN2(Kin.Dom.2, S808G) = target: T4, GCN2(Kin.Dom.2, S808G) (Homo sapiens, UniProt Q9P2K8, S808G); conditions: read-out: % control
T4 construct: GCN2(Kin.Dom.2, S808G)
T4 sequence (Q9P2K8 590-1001 S808G limits assumed): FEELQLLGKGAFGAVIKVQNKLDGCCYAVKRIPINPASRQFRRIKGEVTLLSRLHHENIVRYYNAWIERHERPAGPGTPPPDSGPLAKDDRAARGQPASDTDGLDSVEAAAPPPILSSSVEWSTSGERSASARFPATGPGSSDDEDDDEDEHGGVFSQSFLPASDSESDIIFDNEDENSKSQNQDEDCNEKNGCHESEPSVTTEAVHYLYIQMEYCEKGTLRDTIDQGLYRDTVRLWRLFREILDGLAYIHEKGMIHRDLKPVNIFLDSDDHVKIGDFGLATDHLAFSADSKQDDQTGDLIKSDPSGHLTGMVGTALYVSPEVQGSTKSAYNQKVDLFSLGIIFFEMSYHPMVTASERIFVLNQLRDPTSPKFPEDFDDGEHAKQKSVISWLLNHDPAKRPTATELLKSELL
Method in brief: as §1

Sequence of WNK3 (Q9BYP7 whole entry): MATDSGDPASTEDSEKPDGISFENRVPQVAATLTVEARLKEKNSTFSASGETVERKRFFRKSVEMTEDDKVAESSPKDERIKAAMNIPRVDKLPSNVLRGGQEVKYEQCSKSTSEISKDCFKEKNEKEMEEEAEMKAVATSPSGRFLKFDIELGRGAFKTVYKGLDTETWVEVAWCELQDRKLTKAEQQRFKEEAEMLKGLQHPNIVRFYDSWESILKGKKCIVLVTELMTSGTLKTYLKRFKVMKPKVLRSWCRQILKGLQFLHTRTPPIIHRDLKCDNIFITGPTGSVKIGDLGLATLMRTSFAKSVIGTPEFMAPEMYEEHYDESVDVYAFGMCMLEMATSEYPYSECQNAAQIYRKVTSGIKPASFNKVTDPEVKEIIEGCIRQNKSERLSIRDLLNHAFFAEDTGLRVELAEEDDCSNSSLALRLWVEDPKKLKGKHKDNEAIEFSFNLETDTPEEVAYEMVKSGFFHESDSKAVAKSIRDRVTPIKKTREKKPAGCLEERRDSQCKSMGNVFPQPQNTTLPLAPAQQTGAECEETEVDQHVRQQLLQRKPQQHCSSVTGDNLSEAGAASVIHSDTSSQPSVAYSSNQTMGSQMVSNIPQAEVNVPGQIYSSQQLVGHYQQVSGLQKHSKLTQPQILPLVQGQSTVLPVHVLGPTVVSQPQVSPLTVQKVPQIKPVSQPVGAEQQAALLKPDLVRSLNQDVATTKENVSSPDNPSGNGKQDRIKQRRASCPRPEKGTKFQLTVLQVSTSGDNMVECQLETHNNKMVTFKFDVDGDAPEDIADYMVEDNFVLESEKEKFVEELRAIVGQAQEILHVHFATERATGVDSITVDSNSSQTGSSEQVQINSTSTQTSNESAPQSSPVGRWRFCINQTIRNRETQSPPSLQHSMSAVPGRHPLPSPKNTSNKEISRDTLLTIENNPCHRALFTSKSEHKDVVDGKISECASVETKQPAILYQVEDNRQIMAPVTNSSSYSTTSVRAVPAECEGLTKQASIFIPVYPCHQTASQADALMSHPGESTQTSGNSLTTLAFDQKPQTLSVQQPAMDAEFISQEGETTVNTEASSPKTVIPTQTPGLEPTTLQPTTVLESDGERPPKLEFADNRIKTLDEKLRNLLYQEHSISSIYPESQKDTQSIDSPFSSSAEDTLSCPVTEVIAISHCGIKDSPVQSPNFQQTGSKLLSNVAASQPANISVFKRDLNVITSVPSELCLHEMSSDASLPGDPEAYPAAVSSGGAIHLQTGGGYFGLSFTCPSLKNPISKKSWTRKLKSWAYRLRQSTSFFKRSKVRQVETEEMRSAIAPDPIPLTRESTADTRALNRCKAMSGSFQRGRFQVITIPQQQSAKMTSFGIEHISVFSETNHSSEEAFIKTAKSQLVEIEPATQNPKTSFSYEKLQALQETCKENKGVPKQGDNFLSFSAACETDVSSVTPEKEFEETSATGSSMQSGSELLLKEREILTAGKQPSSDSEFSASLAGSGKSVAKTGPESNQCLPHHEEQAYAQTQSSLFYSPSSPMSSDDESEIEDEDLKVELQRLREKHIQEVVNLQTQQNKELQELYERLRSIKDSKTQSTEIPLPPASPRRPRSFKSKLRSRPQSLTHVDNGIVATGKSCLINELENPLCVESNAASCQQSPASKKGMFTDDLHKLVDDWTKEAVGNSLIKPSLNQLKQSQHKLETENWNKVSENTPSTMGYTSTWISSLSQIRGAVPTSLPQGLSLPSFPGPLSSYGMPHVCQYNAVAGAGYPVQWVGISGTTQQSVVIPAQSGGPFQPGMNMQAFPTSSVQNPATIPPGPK
Sequence of PCTK2 (Q00537 whole entry): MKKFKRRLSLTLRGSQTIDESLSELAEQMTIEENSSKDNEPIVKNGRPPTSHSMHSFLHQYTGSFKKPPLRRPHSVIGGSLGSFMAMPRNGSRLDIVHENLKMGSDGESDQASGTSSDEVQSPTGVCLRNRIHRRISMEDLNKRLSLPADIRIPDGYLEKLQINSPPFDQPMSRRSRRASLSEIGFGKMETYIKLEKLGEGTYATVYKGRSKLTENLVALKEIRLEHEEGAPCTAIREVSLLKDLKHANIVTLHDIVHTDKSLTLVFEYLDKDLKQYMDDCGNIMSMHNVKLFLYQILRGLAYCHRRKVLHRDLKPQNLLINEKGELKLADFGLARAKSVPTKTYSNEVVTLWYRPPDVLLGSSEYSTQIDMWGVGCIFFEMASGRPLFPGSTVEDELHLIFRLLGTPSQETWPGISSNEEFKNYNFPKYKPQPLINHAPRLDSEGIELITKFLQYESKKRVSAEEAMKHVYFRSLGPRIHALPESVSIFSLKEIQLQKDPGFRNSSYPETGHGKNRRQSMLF

Compound	remaining binding at 1 µM (SGK3) [%]	remaining binding at 1 µM (MTOR) [%]	remaining binding at 1 µM (NEK2) [%]	remaining binding at 1 µM (WNK3) [%]	remaining binding at 1 µM (CDC2L2) [%]	remaining binding at 1 µM (PCTK2) [%]	remaining binding at 1 µM (GCN2(Kin.Dom.2, S808G)) [%]
CNc1c(-c2ccc(C(=O)N3CCC(N4CCOCC4)CC3)cc2)cnc2[nH]cc(Cl)c12 [Compound 96, (4-(3-chloro-4-(methylamino)-1H-pyrrolo[2,3-b]pyridin-5-yl)phenyl)(4-morpholinopiperidin-1-yl)methanone]	48	78	100	73	100	97	54
O=C(c1ccc(-c2cnc3[nH]cc(Cl)c3c2NC2CCCC2)cc1)N1CCC(N2CCOCC2)CC1 [Compound 101, (4-(3-chloro-4-(cyclopentylamino)-1H-pyrrolo[2,3-b]pyridin-5-yl)phenyl)(4-morpholinopiperidin-1-yl)methanone]	96	95	100	92	92	96	100
CNc1c(-c2cnn([C@H]3CCN(C(C)=O)C[C@@H]3F)c2)cnc2[nH]cc(Cl)c12 [Compound 77, 1-((3S,4S)-4-(4-(3-chloro-4-(methylamino)-1H-pyrrolo[2,3-b]pyridin-5-yl)-1H-pyrazol-1-yl)-3-fluoropiperidin-1-yl)ethan-1-one]	37	60	100	86	91	100	34
